Article PMC2775485 (Journal of medicinal chemistry, 2009)
One block for each molecule: values may come before it.

Assays:
hMC1R [1] = biological target: T1, hMC1R (Homo sapiens, UniProt Q01726); assay: Adenylate cyclase; format: cell-based; details: for functional class at hMC1R: class by maximal cAMP level relative to MTII; for fold drop in potency: hMC1R, Ac-NDP-γ-MSH-NH2 series, comparator implied: peptide 11
hMC4R [2] = biological target: T2, hMC4R (Homo sapiens, UniProt P32245); assay: Competition binding on whole HEK293 cells, 125I-[Nle4,DPhe7]-α-MSH; details: for hMC4R IC50 / IC50: concentration of peptide at 50% specific binding, N=4, NB: No Binding at 10^-5 M; for IC50: read-out: hMC4R IC50
hMC3R = hMC3R (Homo sapiens, UniProt P41968); assay: as above; details: concentration of peptide at 50% specific binding, N=4; NB: No Binding at 10^-5 M
hMC4R [3] = biological target: T2, hMC4R; assay: Adenylate cyclase; format: cell-based; details: class by maximal cAMP level relative to MTII
hMC1R [4] = biological target: T1, hMC1R; assay: Competition binding on whole HEK293 cells, 125I-[Nle4,DPhe7]-α-MSH; details: Ac-NDP-γ-MSH-NH2 series, comparator implied: peptide 11
[5] = biological target: human melanocortin 1 receptor (human) (UniProt Q01726)
[6] = biological target: human melanocortin 3 receptor (human) (UniProt P41968)
[7] = biological target: human melanocortin 1 receptor (human) (UniProt Q01726); assay: radioligand binding
[8] = biological target: human melanocortin 4 receptor (human) (UniProt P32245)
[9] = biological target: human melanocortin 5 receptor (human) (UniProt P33032)
hMC4R [10] = biological target: T2, hMC4R; details: cited from earlier work

T2 sequence (P32245 whole entry): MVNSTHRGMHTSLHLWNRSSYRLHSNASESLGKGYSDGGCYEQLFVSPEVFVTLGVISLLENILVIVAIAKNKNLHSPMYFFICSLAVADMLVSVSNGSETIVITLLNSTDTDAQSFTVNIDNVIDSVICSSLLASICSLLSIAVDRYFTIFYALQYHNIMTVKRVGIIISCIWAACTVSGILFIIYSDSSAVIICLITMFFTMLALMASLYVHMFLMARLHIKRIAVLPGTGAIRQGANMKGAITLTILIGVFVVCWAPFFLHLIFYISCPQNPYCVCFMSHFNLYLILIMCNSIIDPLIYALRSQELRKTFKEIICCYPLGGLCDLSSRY
Chain of human melanocortin 1 receptor (human) (Q01726 whole entry): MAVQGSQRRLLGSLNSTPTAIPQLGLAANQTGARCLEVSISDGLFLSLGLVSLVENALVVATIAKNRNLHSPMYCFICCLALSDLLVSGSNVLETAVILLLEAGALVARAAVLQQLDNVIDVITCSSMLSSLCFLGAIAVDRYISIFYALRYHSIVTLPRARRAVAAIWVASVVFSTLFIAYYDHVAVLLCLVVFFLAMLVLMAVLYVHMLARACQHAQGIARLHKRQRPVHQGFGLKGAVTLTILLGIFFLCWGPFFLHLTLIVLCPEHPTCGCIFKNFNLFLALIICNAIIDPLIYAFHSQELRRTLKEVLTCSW
T1 sequence (Q01726 whole entry): as above
Chain of human melanocortin 3 receptor (human) (P41968 whole entry): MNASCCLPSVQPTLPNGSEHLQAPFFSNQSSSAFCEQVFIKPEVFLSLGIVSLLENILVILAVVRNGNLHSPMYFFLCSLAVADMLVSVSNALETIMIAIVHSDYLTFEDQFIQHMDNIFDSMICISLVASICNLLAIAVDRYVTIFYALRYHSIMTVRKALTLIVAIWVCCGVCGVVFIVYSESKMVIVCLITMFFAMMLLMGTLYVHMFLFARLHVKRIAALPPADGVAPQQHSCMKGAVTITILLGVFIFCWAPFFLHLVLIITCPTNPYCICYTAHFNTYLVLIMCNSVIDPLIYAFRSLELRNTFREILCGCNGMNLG
Chain of hMC3R (P41968 whole entry): as above
Chain of human melanocortin 5 receptor (human) (P33032 whole entry): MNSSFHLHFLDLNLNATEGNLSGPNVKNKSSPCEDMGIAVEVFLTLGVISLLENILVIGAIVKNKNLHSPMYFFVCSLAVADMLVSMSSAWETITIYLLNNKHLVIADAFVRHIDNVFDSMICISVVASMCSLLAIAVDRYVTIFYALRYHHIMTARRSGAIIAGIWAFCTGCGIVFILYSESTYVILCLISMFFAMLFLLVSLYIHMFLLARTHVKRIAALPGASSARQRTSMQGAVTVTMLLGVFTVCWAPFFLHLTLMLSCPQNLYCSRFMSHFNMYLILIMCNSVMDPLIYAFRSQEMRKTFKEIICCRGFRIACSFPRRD
Chain of human melanocortin 4 receptor (human) (P32245 whole entry): as the sequence (P32245 whole entry) above

Molecule: CCCC[C@H](NC(C)=O)C(=O)N[C@H]1CC(=O)NCCCC[C@@H](C(N)=O)NC(=O)[C@H](Cc2c[nH]c3ccccc23)NC(=O)[C@@H]2CCCN2C(=O)[C@@H](Cc2ccccc2)NC(=O)[C@H](Cc2c[nH]cn2)NC1=O [Peptide 1]
functional class at hMC1R (hMC1R [1]): partial agonist (triggers a maximal cAMP level that is 20%-80% of MTII triggered maximal cAMP response)

Molecule: CCCC[C@H](NC(C)=O)C(=O)N[C@H]1CC(=O)NCCCC[C@@H](C(N)=O)NC(=O)[C@H](Cc2c[nH]c3ccccc23)NC(=O)[C@H](CCCNC(=N)N)NC(=O)[C@@H](Cc2ccccc2)NC(=O)[C@@H]2C[C@@H](NC(=N)N)CN2C1=O [Peptide 4]
hMC4R IC50 (hMC4R [2]): single-digit nanomolar range
hMC3R IC50 (hMC3R): single-digit nanomolar range

Molecule: CCCC[C@H](NC(C)=O)C(=O)N[C@H]1CC(=O)NCCCC[C@@H](C(N)=O)NC(=O)[C@H](Cc2c[nH]c3ccccc23)NC(=O)[C@H](CCCNC(=N)N)NC(=O)[C@@H](Cc2ccccc2)NC(=O)[C@@H]2C[C@H](NC(=N)N)CN2C1=O [Peptide 5]
hMC4R IC50 (hMC4R [2]): single-digit nanomolar range
hMC3R IC50 (hMC3R): single-digit nanomolar range

Molecule: CCCC[C@H](NC(C)=O)C(=O)N[C@H]1CC(=O)NCCCC[C@@H](C(N)=O)NC(=O)[C@H](Cc2c[nH]c3ccccc23)NC(=O)[C@@H]2CCCN2C(=O)[C@@H](Cc2ccc3ccccc3c2)NC(=O)[C@H](Cc2c[nH]cn2)NC1=O [Peptide 6]
functional class at hMC1R (hMC1R [1]): partial agonist (triggers a maximal cAMP level that is 20%-80% of MTII triggered maximal cAMP response)

Molecule: CCCC[C@H](NC(C)=O)C(=O)N[C@H]1CC(=O)NCCCC[C@@H](C(N)=O)NC(=O)[C@H](Cc2c[nH]c3ccccc23)NC(=O)[C@@H]2C[C@H](NC(=N)N)CN2C(=O)[C@@H](Cc2ccc3ccccc3c2)NC(=O)[C@H](Cc2c[nH]cn2)NC1=O [Peptide 8]
functional class at hMC1R (hMC1R [1]): full agonist (80%-100% level of MT II)

Molecule: CCCC[C@H](NC(=O)[C@@H](NC(=O)[C@H](Cc1ccc(O)cc1)NC(C)=O)C(C)C)C(=O)NCC(=O)N[C@@H](Cc1c[nH]cn1)C(=O)N[C@H](Cc1ccccc1)C(=O)N1CCC[C@H]1C(=O)N[C@@H](Cc1c[nH]c2ccccc12)C(=O)N[C@@H](CC(=O)O)C(=O)N[C@@H](CCCNC(=N)N)C(=O)N[C@@H](Cc1ccccc1)C(=O)NCC(N)=O [Peptide 11]
binding affinity at the hMC4R, fold lower/weaker than peptide 1 (hMC4R [2]; relative to control peptide 1): 25 fold
binding affinity at the hMC4R, fold lower than peptide 6 (hMC4R [2]; relative to peptide 6): 8 fold
functional class at hMC1R (hMC1R [1]): partial agonist (triggers a maximal cAMP level that is 20%-80% of MTII triggered maximal cAMP response)
functional class at hMC4R (hMC4R [3]): partial agonist (triggers a maximal cAMP level that is 20%-80% of MTII triggered maximal cAMP response)

Molecule: CCCC[C@H](NC(=O)[C@@H](NC(=O)[C@H](Cc1ccc(O)cc1)NC(C)=O)C(C)C)C(=O)NCC(=O)N[C@@H](Cc1cnc[nH]1)C(=O)N[C@H](Cc1ccccc1)C(=O)N1C[C@H](NC(=N)N)C[C@H]1C(=O)N[C@@H](Cc1c[nH]c2ccccc12)C(=O)N[C@@H](CC(=O)O)C(=O)N[C@@H](CCCNC(=N)N)C(=O)N[C@@H](Cc1ccccc1)C(=O)NCC(N)=O [Peptide 12]
IC50 (hMC4R [2]): > 10000 nM
fold drop in binding affinity (hMC1R [4]): 4-5 fold
functional class at hMC1R (hMC1R [1]): full agonist (80%-100% level of MT II)
fold drop in potency (hMC1R [1]): more than 11 fold

B1: hASIP: Endogenous antagonist of the hMCRs, agouti signaling protein (protein, UniProt P42127 23-132, looked up)
Agouti-signaling protein: HLPPEEKLRDDRSLRSNSSVNLLDVPSVSIVALNKKSKQIGRKAAEKKRSSKKEASMKKVVRPRTPLSAPCVATRNSCKPPAPACCDPCASCQCRFFRSACSCRVLSLNC
selectivity hMC4R/hMC3R (hMC4R [10]): 46 fold

Next, values leading:

IC50 (hMC4R [2]): > 10000 nM
fold drop in binding affinity (hMC1R [4]): 4-5 fold
functional class at hMC1R (hMC1R [1]): full agonist (80%-100% level of MT II)
fold drop in potency (hMC1R [1]): more than 11 fold
Molecule: CCCC[C@H](NC(=O)[C@@H](NC(=O)[C@H](Cc1ccc(O)cc1)NC(C)=O)C(C)C)C(=O)NCC(=O)N[C@@H](Cc1cnc[nH]1)C(=O)N[C@H](Cc1ccccc1)C(=O)N1C[C@@H](NC(=N)N)C[C@H]1C(=O)N[C@@H](Cc1c[nH]c2ccccc12)C(=O)N[C@@H](CC(=O)O)C(=O)N[C@@H](CCCNC(=N)N)C(=O)N[C@@H](Cc1ccccc1)C(=O)NCC(N)=O [Peptide 13]

cAMP accumulation in receptor-transfected HEK293 cells, EC50 [5]: > 1000 nM
cAMP accumulation, %max of MTII [5]: 75%
Molecule: peptide 1 (MTII with Arg8 replaced by Pro)

cAMP accumulation in receptor-transfected HEK293 cells, EC50 [5]: 620 nM
cAMP accumulation, %max of MTII [5]: 25%
cAMP accumulation in receptor-transfected HEK293 cells, EC50 [6]: 130 nM
Molecule: peptide 9 (SHU9119 with His6 replaced by 4-guanidinyl-Pro)

IC50 [7]: 1.2 nM
cAMP accumulation in receptor-transfected HEK293 cells, EC50 [5]: 1700 nM
cAMP accumulation, %max of MTII [5]: 90%
cAMP accumulation in receptor-transfected HEK293 cells, EC50 [8]: 1400 nM
cAMP accumulation, %max of MTII (EC50 cell also prints 0) [6]: 0%
cAMP accumulation in receptor-transfected HEK293 cells, EC50 [9]: 85 nM
cAMP accumulation, %max of MTII [9]: 52%
Molecule: peptide 10 (SHU9119 with His6 replaced by 4-guanidinyl-Pro)
